Laboratory results published in patent US11440880B2, “Thalidomide analogs and methods of use” (The USA, as represented by the Secretary, Department of …, priority 2015, dated 2022).

Experiments:
Format in all cases: cell-based, mouse
Parameters in all cases: key: NS=not significant; a “+” sign=anti-inflammatory or increased cell numbers; a “−” sign=cell toxicity or pro-inflammatory
TNF-α protein = TNF-α protein level (ELISA) in LPS-challenged RAW 264.7 cells; conditions: LPS 30 or 60 ng/mL, 24 h
Description: (§1) Nitrite levels in the culture media were measured by use of the Griess Reagent System (Promega, Madison, Wis.), following the manufacturer's protocol. The O.D. of unknown samples was read at 520 nm λ, compared to a sodium nitrite standard curve (1.5 μM to 100 μM) and nitrite measured media concentrations expressed as μM units. As the lowest nitrite concentration on the Griess Reagent System standard curve was 1.5 μM, this was chosen as the effective cutoff for defining measurable nitrite concentrations. TNF-α protein levels were measured by use of an ELISA specific for mouse TNF-α protein (BioLegend, San Diego, Calif.) and are expressed as a % change from their appropriate control or as pg/ml.
(§2) RAW 264.7 cells obtained from ATCC (Manassas, Va., USA) were grown in DMEM media supplemented with 10% FCS, penicillin 100 μg/ml and streptomycin 100 μg/ml, and maintained at 37° C. and 5% CO2. Cells were seeded in 24 well plates and, 24 hours later, were utilized in studies. One hour prior to the initiation of any study, the seeding media was replaced with fresh media (1 mL), and the cells were allowed to equilibrate at 37° C. and 5% CO2.
(§3) RAW 264.7 cells were challenged with LPS (Sigma, St Louis, Mo.: serotype 055:B5) from at a final concentration of 30 or 60 ng/mL. This concentration of LPS in RAW 264.7 cells induces a sub-maximal rise in both TNF-alpha and nitrite levels without a loss in cellular viability. This sub-maximal rise is useful for assessing whether the addition of an experimental drug can either lower or further raise levels of TNF-α and nitrite. Twenty four hours following the addition of LPS, conditioned media was harvested and analyzed for quantification of secreted TNF-α protein and nitrite levels. Fresh media was replaced into the wells and cell viability was then assessed.
(§4) Thalidomide and analogs were prepared in tissue culture grade DMSO (Sigma). RAW 264.7 cells were pretreated with thalidomide, analogues or vehicle one hour prior to a challenge with LPS. The effects of various concentrations of thalidomide analogues were assessed. All compounds were synthesized to a chemical purity of >99.5%, as assessed by chemical characterization by a combination of 1H NMR, 13C NMR and GC/MS analyses (Bruker AC-300 spectrometer, together with elemental analyses (Atlantic Microlab, Inc., Norcross, Ga.).

RAW 264.7 cells = assay: Cell viability (CellTiter 96 AQueous One) of LPS-challenged RAW 264.7 cells
Description: The CellTiter 96® AQueous One Solution Cell Proliferation Assay (Promega, Madison, Wis.) is routinely used as an assay of cell proliferation, and was used according to the manufacturer's recommendations. Changes in cellular health status are determined by use of indirect measures related to the formation of a colored tetrazolium dye product that can be measured spectrophotometrically at 490 nm λ. […] Optical densities (expressed as O.D.s) were measured after various incubations.
as §2, §3, §4

[1] = test system: nitrite levels in the culture media; assay: Nitrite level (Griess Reagent System) in LPS-challenged RAW 264.7 cells; conditions: LPS 30 or 60 ng/mL, 24 h
Description: as §1, §2, §3, §4

| SMILES | TNF-α (TNF-α protein; 3 μM) | TNF-α (TNF-α protein; 10 μM) | TNF-α (TNF-α protein; 30 μM) | Viability (RAW 264.7 cells; 3 μM) | Viability (RAW 264.7 cells; 10 μM) | Viability (RAW 264.7 cells; 30 μM) | TNF-α (TNF-α protein; 1 μM) | Viability (RAW 264.7 cells; 1 μM) | Nitrite ([1]; 1 μM) | Nitrite ([1]; 10 μM) | Nitrite ([1]; 30 μM) |
| --- | --- | --- | --- | --- | --- | --- | --- | --- | --- | --- | --- |
| Nc1ccc2c(c1)C(=O)N(C1=CNC(=O)CC1)C2 [Compound 43] | NS | NS | NS | NS | NS | NS |  |  |  |  |  |
| Nc1ccc2c(c1)C(=O)N(C1CC=CNC1=O)C2 (stereo not shown) [Compound 44] | NS | NS | + | NS | NS | NS |  |  |  |  |  |
| O=C1CCCC(=O)N1CN1C(=O)CCC(N2Cc3ccccc3C2=O)C1=O (stereo not shown) [Compound 48] |  | + | + |  | NS | NS | + | NS |  |  |  |
| CC(N1Cc2ccccc2C1=O)C12CC3CC(CC(C3)C1)C2 (stereo not shown) [Compound 71] |  | NS | + |  | NS | − | NS | NS | NS | NS | + |
| S=C1c2ccccc2CN1C12CC3CC(CC1C3)C2 [Compound 75] |  | + | + |  | NS | NS | NS | NS | NS | NS | NS |
| O=C1c2cccc([N+](=O)[O-])c2CN1CC12CC3CC(CC(C3)C1)C2 [Compound 78] |  | + | + |  | NS | − | NS | NS | NS | NS | + |
| Nc1cccc2c1CN(CC13CC4CC(CC(C4)C1)C3)C2=O [Compound 79] |  | NS | NS |  | NS | − | NS | NS | NS | NS | + |
| O=C1c2cccc([N+](=O)[O-])c2CN1C12CC3CC(CC(O)(C3)C1)C2 [Compound 87] |  | NS | NS |  | NS | NS | NS | NS | NS | NS | NS |
| Nc1cccc2c1CN(C13CC4CC(CC(O)(C4)C1)C3)C2=O [Compound 88] |  | NS | NS |  | NS | NS | NS | NS | NS | NS | NS |
| C[C@H]1[C@H](N2Cc3c(cccc3[N+](=O)[O-])C2=O)C[C@@H]2C[C@H]1C2(C)C [Compound 90] |  | + | + |  | NS | NS | + | NS | + | + | + |
| C[C@@H]1[C@@H](N2Cc3c(cccc3[N+](=O)[O-])C2=O)C[C@H]2C[C@@H]1C2(C)C [Compound 92] |  | + | + |  | − | − | NS | NS | + | + | + |
| CC1(C)[C@@H]2CC[C@]1(C)[C@H](N1Cc3c(cccc3[N+](=O)[O-])C1=O)C2 [Compound 94] |  | + | + |  |  | − | NS | NS | + | + | + |
| CC1(C)[C@@H]2CC[C@]1(C)[C@H](N1Cc3c(N)cccc3C1=O)C2 [Compound 95] |  | NS | NS |  | + | + | NS | NS | NS | NS | + |
| CC1(C)[C@@H]2CC[C@]1(C)[C@@H](N1Cc3c(cccc3[N+](=O)[O-])C1=O)C2 [Compound 96] |  | + | + |  | − | NS | NS | − | + | + | + |
| CC1(C)[C@@H]2CC[C@]1(C)[C@@H](N1Cc3c(N)cccc3C1=O)C2 [Compound 97] |  | + | NS |  | NS | NS | NS | NS | NS | NS | + |
| CC1(C)[C@@H]2CC[C@]1(C)[C@@H](N1C=C3C(=CC=C/C3=N\OO)C1=O)C2 [Compound 98] |  | + | + |  | NS | NS | SIG | NS | + | + | + |
| O=C1c2cccc([N+](=O)[O-])c2CN1[C@@H]1C[C@H]2CC[C@@H]1C2 [Compound 99] |  | NS | + |  | − | − | NS | NS | + | + | + |
| c1ccc2c(c1)CN=C2C1=NCc2ccccc21 [Compound 106] | NS | NS | NS | + | + | + |  |  |  |  |  |
| C[C@H]1[C@H](N2C(=O)C3C4C=CC(C4)C3C2=O)C[C@@H]2C[C@H]1C2(C)C (stereo partly shown) [Compound 120] |  | + |  |  | − |  |  |  |  |  |  |
